Test results taken from patent publication US7537919B2, “Cytochrome P450RAI-2 and related proteins” (Cytochroma Inc., priority 1999, dated 2009).
“And” between values parts separate entries of the source, which are not always exact repeats. Equal entries are not always repeated. Each block holds one compound with its values, some of them ahead of it.

Experiments:
[1] = target: T1, P450RAI-2 (Homo sapiens, UniProt Q9NR63); assay: Competitive inhibition of all-trans-RA metabolism in COS-1 cells transfected with pcDNA3.1-P450RAI-2; format: cell-based; design: The full-length human P450RAI-2 cDNA was cloned into the eukaryotic expression vector pcDNA 3.1; expressed in transfected cells; host or cells: COS-1 (African green monkey kidney), transient transfection; conditions: for effectiveness as competitor of P450RAI-2 mediated all-trans-RA metabolism: compared with all-trans-RA, COS-1 cells
T1 sequence (Q9NR63 1-512): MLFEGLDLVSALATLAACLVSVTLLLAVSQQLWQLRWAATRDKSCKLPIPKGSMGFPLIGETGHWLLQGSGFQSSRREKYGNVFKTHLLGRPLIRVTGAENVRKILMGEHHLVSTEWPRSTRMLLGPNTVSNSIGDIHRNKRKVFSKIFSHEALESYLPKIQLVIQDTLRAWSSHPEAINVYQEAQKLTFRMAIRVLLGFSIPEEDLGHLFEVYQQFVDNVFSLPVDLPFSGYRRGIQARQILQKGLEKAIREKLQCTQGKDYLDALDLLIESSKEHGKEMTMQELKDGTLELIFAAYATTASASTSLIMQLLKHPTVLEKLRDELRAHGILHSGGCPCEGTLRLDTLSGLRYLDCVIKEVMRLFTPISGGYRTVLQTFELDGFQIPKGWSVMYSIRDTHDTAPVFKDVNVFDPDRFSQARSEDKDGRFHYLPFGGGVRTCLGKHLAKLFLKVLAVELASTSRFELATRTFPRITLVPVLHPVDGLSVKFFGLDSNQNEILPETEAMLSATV
Protocol: (§1) Panels on the right show cells expressing P450RAI-2 with panels on the left showing cells expressing P450RAI-1.
(§2) Exponentially growing cells were plated in triplicate into 6-well plates and transfected with lug of pcDNA3.1-P450RAI-1 or pcDNA3.1-P450RAI-2 using Fugene 6 transfection reagent with 3 ul per sample as described by the manufacturer (Roche Molecular Biochemicals, IN). Cells were maintained in media supplemented with 10% FBS during transfection.
COS-1 cells were transfected with either pcDNA3.1-P450RAI-1 or pcDNA3.1-P450RAI-2 in 6-well tissue culture plates as described above.

[2] = test system: P450RAI-2 transcripts; assay: Induction of P450RAI-2 mRNA in cultured cell lines (Northern blot, RT-PCR); conditions: for induction of P450RAI-2 expression, MCF-7 cells: 10^-6 M retinoid
[3] = target: T2, P450RAI-1 (Homo sapiens, UniProt O43174); assay: Competitive inhibition of all-trans-RA metabolism in COS-1 cells transfected with pcDNA3.1-P450RAI-1; format: cell-based; design: expressed in transfected cells; host or cells: COS-1 (African green monkey kidney), transient transfection; conditions: for effectiveness as competitor of P450RAI-1 mediated all-trans-RA metabolism: compared with all-trans-RA; for IC50: 2 nM [3H]all-trans-RA, 3 hours, aqueous soluble radioactivity, read-out: Interpolated ID50, P450RAI-1
T2 sequence (O43174 1-497): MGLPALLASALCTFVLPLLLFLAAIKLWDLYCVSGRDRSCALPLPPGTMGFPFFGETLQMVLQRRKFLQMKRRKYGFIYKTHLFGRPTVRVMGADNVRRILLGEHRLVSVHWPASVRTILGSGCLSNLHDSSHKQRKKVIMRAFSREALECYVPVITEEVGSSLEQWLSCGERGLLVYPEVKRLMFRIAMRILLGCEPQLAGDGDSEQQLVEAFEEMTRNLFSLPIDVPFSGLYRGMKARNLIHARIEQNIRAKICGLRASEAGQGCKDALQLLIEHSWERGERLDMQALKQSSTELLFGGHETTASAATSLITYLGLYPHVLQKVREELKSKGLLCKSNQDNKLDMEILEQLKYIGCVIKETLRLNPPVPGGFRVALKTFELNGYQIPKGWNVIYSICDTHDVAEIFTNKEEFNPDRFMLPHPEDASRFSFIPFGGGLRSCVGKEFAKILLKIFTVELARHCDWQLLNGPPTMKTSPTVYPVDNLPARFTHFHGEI
Protocol: as §1, §2
COS-1 cells were transfected with either pcDNA3.1-P450RAI-1 or pcDNA3.1-P450RAI-2 in 6-well tissue culture plates as described above. 48 hours post-transfection cells were harvested, pooled, washed with DMEM medium and replated into duplicate 48-well plates with 5×10^5 cells per well.

[4] = target: T1, P450RAI-2; assay: Metabolism of [3H]all-trans-RA to aqueous-soluble products in COS-1 cells transfected with pcDNA3.1-P450RAI-2; design: dose or concentration left out as unconfirmed; conditions: radiolabelled all-trans-retinoic acid
[5] = Conversion of [3H]all-trans-RA in controls (media alone, pcDNA3.1 transfected COS-1 cells)
[6] = target: T2, P450RAI-1; assay: Metabolism of [3H]all-trans-RA to aqueous-soluble products in COS-1 cells transfected with pcDNA3.1-P450RAI-1; conditions: 100 mM (so in the source) radiolabelled all-trans-retinoic acid
[7] = test system: P450RAI-2 expression; assay: P450RAI-2 expression in RAFT and psoriasis biopsy samples (Northern blot, RT-PCR); format: cell-based, human
Protocol: Total RNA aliquots (10 μg) were electrophoresed on a 1.0% formaldehyde-agarose gel and a northern blot performed. The gel was photographed under ultraviolet light and then blotted on Hybond ECL nitrocellulose membrane (Amersham Pharmacia Biotech, UK) and fixed to the membrane by baking at 80° C. for 2 hours under vacuum. […] Three individual cDNA fragments were labeled with α-[^32P]dATP using the Prime-A-Gene Labeling System (Promega, WI). The probes were as follows; P450RAI-1762-1217 bp of SEQ ID NO:13, full length P450RAI-2 SEQ ID NO:4 and a human glyceraldehyde-3-phosphate dehydrogenase (GAPDH) PCR fragment. The blot was hybidized with P450RAI-2, washed two times for 5 minutes in 2×SSPE, 0.1% SDS at room temperature, then washed once at 65° C. for 10 minutes in 1×SSPE, 0.1% SDS and a final wash for 15 minutes at 65° C. in 0.1×SSPE, 0.1% SDS. The blot was exposed at −70° C. for 48 hours to Kodak X-Omat AR film (Eastman Kodak Company, NY). […] The blot was stripped by washing two times for 30 minutes in boiling 0.5% SDS and exposed to film overnight to ensure proper removal of probe. The above protocol was repeated for P450RAI-1 and GAPDH. The P450RAI-1 and GAPDH blots were exposed for 96 and 4 hours respectively.
The final primer concentrations were 45 μM for the P450RAI-1 and P450RAI-2 primers and 11.25 μM for the GAPDH-specific primers. Two separate sets of reactions were performed using the primer sets, P450RAI-1/GAPDH and P450RAI-2/GAPDH. […] The P450RAI-1, P450RAI-2 and GAPDH upstream and downstream amplification primers sets were 5′[…]-3′ (SEQ ID NO: 35) and 5′-[…]-3′ (SEQ ID NO: 36), 5′-[…]-3′ (SEQ ID NO: 37) and 5′-[…]-3′ (SEQ ID NO: 38), 5′-[…]-3′ (SEQ ID NO: 39) and 5′-[…]-3′ (SEQ ID NO: 40) respectively. […] Both the Psoriasis samples show PCR products corresponding to P450RAI-2.

SMILES: CC1=C(/C=C/C(C)=C\C=C\C(C)=C\C(=O)O)C(C)(C)CCC1 [9-cis-RA, 9-cis retinoic acid]
effectiveness as competitor of P450RAI-2 mediated all-trans-RA metabolism [1]: less effective
induction of P450RAI-2 expression, MCF-7 cells ([2]; Northern blot, 12 hours): not clear
effectiveness as competitor of P450RAI-1 mediated all-trans-RA metabolism [3]: less effective

SMILES: CC1=C(/C=C/C(C)=C/C=C/C(C)=C/C(=O)O)C(C)(C)CCC1 [All-trans-RA, all-trans retinoic acid]
all-trans-RA substrate converted to aqueous-soluble products, P450RAI-2 transfected cells [4]: 34±0.2%
conversion of substrate to aqueous radioactivity, pcDNA3.1 transfected cells ([5]; COS-1 cells with empty vector pcDNA3.1, 3 hours): 2.7±0.2%
conversion of substrate to aqueous radioactivity, media alone ([5]; media alone control, 3 hours): 1.6±0.1%
time to induction of P450RAI-2 transcripts ([2]; HPK1a-ras cells, RT-PCR, post-addition of inducer): ≤ 2 h
induction of P450RAI-2 transcripts, HPK1a-ras, HeLa and MCF-7 ([2]; Northern blot, 1 μM, 12 hours): show induction
induction of P450RAI-2 expression, MCF-7 cells ([2]; Northern blot, 12 hours): induced
induction of P450RAI-2 expression, HPK1A-RAS keratinocytes ([2]; Northern blot, 10^-6 M, 12 hours): inducible
inducible expression of P450RAI-2, MCF-7, HeLa, HPK1a-ras and WT-E ([2]; RT-PCR, 1 μM): evidence for inducible expression
P450RAI-2 transcripts in NB4, V79 and SK-Luci-6 cells ([2]; RT-PCR, vehicle or all-trans-RA treated): little or no perceptible transcripts
IC50 [3]: ~2.5 µM and 2.5 µM
all-trans-RA substrate converted to aqueous-soluble products, P450RAI-1 transfected cells [6]: 26±1.5%

SMILES: CCOC(=O)c1ccc(C#Cc2ccc3c(c2)C(C)(C)CCS3)nc1 [Tazarotene]
P450RAI-2 expression, Day14 Psoriasis Biopsy sample ([7]; Northern blot): expressed
P450RAI-2 expression, RAFT sample ([7]; Northern blot): induced
P450RAI-2 expression, RAFT sample ([7]; RT-PCR): shows expression

SMILES: CC1=C(/C=C/C(C)=C/C=C/C(C)=C\C(=O)O)C(C)(C)CCC1 [13-cis-RA, 13-cis retinoic acid]
effectiveness as competitor of P450RAI-2 mediated all-trans-RA metabolism [1]: less effective
induction of P450RAI-2 expression, MCF-7 cells ([2]; Northern blot, 12 hours): induced
effectiveness as competitor of P450RAI-1 mediated all-trans-RA metabolism [3]: less effective

Other lines, results leading:

effectiveness as competitor of P450RAI-2 mediated all-trans-RA metabolism [1]: less effective
effectiveness as competitor of P450RAI-2 mediated all-trans-RA metabolism ([1]; listed as retinaldehyde): very poor competitors
effectiveness as competitor of P450RAI-1 mediated all-trans-RA metabolism [3]: less effective
effectiveness as competitor of P450RAI-1 mediated all-trans-RA metabolism ([3]; listed as retinaldehyde): very poor competitors
SMILES: CC1=C(/C=C/C(C)=C/C=C/C(C)=C/C=O)C(C)(C)CCC1 [retinal]

effectiveness as competitor of P450RAI-2 mediated all-trans-RA metabolism [1]: less effective
effectiveness as competitor of P450RAI-2 mediated all-trans-RA metabolism ([1]; listed as retinol): very poor competitors
IC50 ([1]; read-out: Interpolated ID50, P450RAI-2): > 100 µM
IC50 [3]: > 100 µM
effectiveness as competitor of P450RAI-1 mediated all-trans-RA metabolism [3]: less effective
effectiveness as competitor of P450RAI-1 mediated all-trans-RA metabolism ([3]; listed as retinol): very poor competitors
SMILES: CC1=C(/C=C/C(C)=C/C=C/C(C)=C/CO)C(C)(C)CCC1 [Retinol, retinol]
